pIC50: −log10 of the molar value.
Each compound was assayed against FAAH (Homo sapiens (Human), UniProt O00519) (assay: Assay Method 1: FAAH assay, T84 cell homogenate, 3H-anandamide hydrolysis). Settings: 3H-AEA tracer 200 nM, 1 h at rt.
Chain of FAAH (O00519 whole entry): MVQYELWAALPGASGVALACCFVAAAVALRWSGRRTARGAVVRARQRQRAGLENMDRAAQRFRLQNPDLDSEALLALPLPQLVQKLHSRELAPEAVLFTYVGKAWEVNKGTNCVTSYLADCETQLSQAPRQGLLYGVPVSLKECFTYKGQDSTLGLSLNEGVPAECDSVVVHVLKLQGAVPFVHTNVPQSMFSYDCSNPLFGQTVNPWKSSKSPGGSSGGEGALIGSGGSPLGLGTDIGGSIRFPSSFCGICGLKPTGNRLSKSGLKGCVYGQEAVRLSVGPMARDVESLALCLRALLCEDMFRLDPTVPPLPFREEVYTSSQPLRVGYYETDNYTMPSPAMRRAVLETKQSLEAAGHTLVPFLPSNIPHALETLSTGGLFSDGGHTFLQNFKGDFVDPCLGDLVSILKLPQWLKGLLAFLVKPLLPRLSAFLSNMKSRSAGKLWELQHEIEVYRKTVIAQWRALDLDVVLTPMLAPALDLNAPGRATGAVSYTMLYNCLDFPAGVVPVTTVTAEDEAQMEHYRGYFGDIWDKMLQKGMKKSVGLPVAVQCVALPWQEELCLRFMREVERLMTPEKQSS
Format: biochemical
Procedure: T84 frozen pellets (contents of 1-4×15 cm culture dishes) were homogenized in 300 mL of FAAH assay buffer (125 mM Tris, 1 mM EDTA, 0.2% glycerol, 0.02% Triton X-100, 0.4 mM Hepes, pH 9). The assay mixture was prepared from 50 μL of the cell homogenate, 10 μL of the test compound, and 40 μL of anandamide [1-3H-ethanolamine] (^3H-AEA; Perkin-Elmer, 10.3 Ci/mmol), which was added last, for a final tracer concentration of 200 nM. The reaction mixture was incubated at rt for 1 hour (h). During the incubation, 96-well Multiscreen filter plates (catalog number MAFCNOB50; Millipore, Bedford, Mass., USA) were loaded with 25 μL of activated charcoal (Multiscreen column loader, catalog number MACL09625, Millipore) and washed once with 100 μL of MeOH. Also during the incubation, 96-well DYNEX MicroLite plates (catalog number NL510410) were loaded with 100 μL of MicroScint40 (catalog number 6013641, Packard Bioscience, Meriden, Conn., USA). After the 1 h incubation, 60 μL of the reaction mixture were transferred to the charcoal plates, which were then assembled on top of the DYNEX plates using Centrifuge Alignment Frames (catalog number MACF09604, Millipore). The unbound, labeled ethanolamine was centrifuged through to the bottom plate (5 min at 2000 rpm), which was preloaded with the scintillant, as described above. The plates were sealed and left at rt for 1 h before counting on a Hewlett Packard TopCount.
For O=C(Nc1ccccc1)N1CCN(Cc2ccccn2)CC1 [Example 46, 4-Pyridin-2-ylmethyl-piperazine-1-carboxylic acid phenylamide], the pIC50 was under 5.00.
Work on O=C(Nc1ccccc1)N1CCN(Cc2cccnc2)CC1 [Example 47, 4-Pyridin-3-ylmethyl-piperazine-1-carboxylic acid phenylamide] yielded a pIC50 of under 5.00.
In the case of CC(C)Oc1ccc(CN2CCN(C(=O)Nc3ccccc3)CC2)cc1 [Example 48, 4-(4-Isopropoxy-benzyl)-piperazine-1-carboxylic acid phenylamide], the pIC50 was 5.46.
Work on O=C(Nc1ccccc1)N1CCN(Cc2ccc(-c3ccccc3)cc2)CC1 [Example 49, 4-Biphenyl-4-ylmethyl-piperazine-1-carboxylic acid phenylamide] yielded a pIC50 of 5.35.
In the case of O=C(Nc1ccccc1)N1CCN(Cc2ccnc3ccccc23)CC1 [Example 50, 4-Quinolin-4-ylmethyl-piperazine-1-carboxylic acid phenylamide], the pIC50 was 5.52.
O=C(Nc1ccccc1)N1CCN(Cc2cccc3c2OCO3)CC1 [Example 51, 4-Benzo[1,3]dioxol-4-ylmethyl-piperazine-1-carboxylic acid phenylamide] gave a pIC50 of 5.22.
For Cn1ccc2cc(CN3CCN(C(=O)Nc4ccccc4)CC3)ccc21 [Example 53, 4-(1-Methyl-1H-indol-5-ylmethyl)-piperazine-1-carboxylic acid phenylamide], the pIC50 was 6.64.
O=C(Nc1ccccc1)N1CCN(Cc2ccc3cc(Cl)ccc3n2)CC1 [Example 54, 4-(6-Chloro-quinolin-2-ylmethyl)-piperazine-1-carboxylic acid phenylamide] was tested, and the pIC50 was 6.77.
Work on O=C(Nc1ccccc1)N1CCN(Cc2ccc3cccc(Cl)c3n2)CC1 [Example 55, 4-(8-Chloro-quinolin-2-ylmethyl)-piperazine-1-carboxylic acid phenylamide] yielded a pIC50 of 7.55.
For O=C(Nc1ccccc1)N1CCN(Cc2cc3ccccc3nc2Cl)CC1 [Example 56, 4-(2-Chloro-quinolin-3-ylmethyl)-piperazine-1-carboxylic acid phenylamide], the pIC50 was 5.05.
Compound O=C(Nc1ccc(F)cc1)N1CCN(Cc2ccc3ccccc3n2)CC1 [Example 58, 4-Quinolin-2-ylmethyl-piperazine-1-carboxylic acid (4-fluoro-phenyl)-amide] has a pIC50 of 7.00.
O=C(Nc1ccccc1)N1CCN(Cc2cccc(Oc3ccc(Cl)cc3)c2)CC1 [Example 60, 4-[3-(4-Chloro-phenoxy)-benzyl]-piperazine-1-carboxylic acid phenylamide] was tested, and the pIC50 was 8.05.
With O=C(Nc1ccccc1)N1CCN(Cc2cccc(Oc3ccc(Cl)c(Cl)c3)c2)CC1 [Example 61, 4-[3-(3,4-Dichloro-phenoxy)-benzyl]-piperazine-1-carboxylic acid phenylamide] the pIC50 was 7.70.
Work on Cc1ccc(Oc2cccc(CN3CCN(C(=O)Nc4ccccc4)CC3)c2)cc1 [Example 62, 4-(3-p-Tolyloxy-benzyl)-piperazine-1-carboxylic acid phenylamide] yielded a pIC50 of 7.74.
For CC(C)(C)c1ccc(Oc2cccc(CN3CCN(C(=O)Nc4ccccc4)CC3)c2)cc1 [Example 63, 4-[3-(4-tert-Butyl-phenoxy)-benzyl]-piperazine-1-carboxylic acid phenylamide], the pIC50 was 7.16.
O=C(Nc1ccccc1)N1CCN(Cc2cccc(Oc3cccc(C(F)(F)F)c3)c2)CC1 [Example 64, 4-[3-(3-Trifluoromethyl-phenoxy)-benzyl]-piperazine-1-carboxylic acid phenylamide] gave a pIC50 of 6.66.
For COc1ccc(Oc2cccc(CN3CCN(C(=O)Nc4ccccc4)CC3)c2)cc1 [Example 65, 4-[3-(4-Methoxy-phenoxy)-benzyl]-piperazine-1-carboxylic acid phenylamide], the pIC50 was 8.05.
COc1ccc2cc(CN3CCN(C(=O)Nc4ccccc4)CC3)ccc2c1 [Example 66, 4-(6-Methoxy-naphthalen-2-ylmethyl)-piperazine-1-carboxylic acid phenylamide] was tested, and the pIC50 was 5.80.

From patent US9169224B2, “Piperazinyl and piperidinyl ureas as modulators of fatty acid amide hydrolase” (Janssen Pharmaceutica NV, priority 2004, dated 2015)
